Experimental data from patent publication US10561739B2, “Targeted pyrrolobenzodiazapine conjugates” (priority 2010, dated 2020).

Columns and labels:
Format in all cases: cell-based
A2780 parental cell line = test: A2780 assay (MTT cytotoxicity); details: Homo sapiens, 72 hours
Method: The A2780 parental cell line was grown in Dulbecco's Modified Eagles' Media (DMEM) containing ˜10% Foetal Calf Serum (FCS) and ˜1% 200 mM L-Glutamine solution and grown in Corning Cellbind 75 cm^2 flasks.
A 190 μl cell suspension was added (at 1×10^4) to each well of columns 2 to 11 of a 96 well plate (Nunc 96F flat bottom TC plate), 190 μl of media was added to each well of columns 1 and 12. The media was Dulbecco's Modified Eagles' Media (DMEM) (which included ˜10% Foetal Calf Serum (FCS) and ˜1% 200 mM L-Glutamine solution).
Plates were incubated overnight at 37° C. before addition of drug if cells were adherent, 200 μM of the test compound solutions (in 100% DMSO) were serially diluted across a 96 well plate. Each resulting point was then further diluted 1/10 into sterile distilled water (SDW).
To the cell negative blanks and compound negative control wells, 10% DMSO was added at 5% v/v. Assay plates were incubated for the following durations at 37° C. in 5% CO2 in a humidified incubator for 72 hours. Following incubation, MTT solution to a final concentration of 1.5 μM was added to each well. The plates were then incubated for a further 4 hours at 37° C. in 5% CO2 in a humidified incubator. […]
Plates were read at 540 nm absorbance using an Envision plate reader. Data was analysed using Microsoft Excel and GraphPad Prism and IC50 values obtained.

786-O cells = test: Free drug 48 hour Cell Titer Glo cytotoxicity, 786-O; details: Homo sapiens, 786-0, Table 3, 48 hours, read-out: IC50 Summary for Free Drugs, 786-O
Method: (§1) Referring to the following Table 3, the activities of compounds 23, 25, are compared to that of compound 11 on 786-O, Caki-1, MCF-7, HL-60, THP-1, HEL, and TF1 cells. Cells were plated in 150 μL growth media per well into black-sided clear-bottom 96-well plates (Costar, Corning) and allowed to settle for 1 hour in the biological cabinet before placing in the incubator at 37° C., 5% CO2. The following day, 4× concentration of drug stocks were prepared, and then titrated as 10-fold serial dilutions producing 8-point dose curves and added at 50 μl per well in duplicate. Cells were then incubated for 48 hours at 37° C., 5% CO2. Cytotoxicity was measure by incubating with 100 μL Cell Titer Glo (Promega) solution for 1 hour, and then luminescence was measured on a Fusion HT plate reader (Perkin Elmer). Data was processed with Excel (Microsoft) and GraphPad (Prism) to produce dose response curves and IC50 values were generated and data collected.

Caki-1 cells = test: Free drug 48 hour Cell Titer Glo cytotoxicity, Caki-1; details: Homo sapiens, Table 3, 48 hours, read-out: IC50 Summary for Free Drugs, Caki-1
Method: as §1

MCF-7 cells [1] = test: Free drug 48 hour Cell Titer Glo cytotoxicity, MCF-7; details: Homo sapiens, MCF7, Table 3, 48 hours, read-out: IC50 Summary for Free Drugs, MCF-7
Method: as §1

HL-60 cells = test: Free drug 48 hour Cell Titer Glo cytotoxicity, HL-60; details: Homo sapiens, Table 3, 48 hours, read-out: IC50 Summary for Free Drugs, HL-60
Method: as §1

THP-1 cells = test: Free drug 48 hour Cell Titer Glo cytotoxicity, THP-1; details: Homo sapiens, Table 3, 48 hours, read-out: IC50 Summary for Free Drugs, THP-1
Method: as §1

HEL cells = test: Free drug 48 hour Cell Titer Glo cytotoxicity, HEL; details: Homo sapiens, Table 3, 48 hours, read-out: IC50 Summary for Free Drugs, HEL
Method: as §1

TF1a cells = test: Free drug 48 hour Cell Titer Glo cytotoxicity, TF1a; details: TF-1a, Table 3, 48 hours, read-out: IC50 Summary for Free Drugs, TF1a
Method: as §1

[2] = test system: Hodgkin lymphoma cell line, L428; test: Free drug 96-hour resazurin cytotoxicity assay, L428; details: Homo sapiens, L-428, Table 1, 96-hour assay, read-out: IC50 Summary for Free Drugs, L428
Method: (§2) The cytotoxicity of various free drug compounds was tested on a renal cell cancer cell line, 786-O, a Hodgkin lymphoma cell line, L428 and two AML cell lines, HL60 and HEL.
(§3) For a 96-hour assay, cells cultured in log-phase growth were seeded for 24 h in 96-well plates containing 150 μL RPMI 1640 supplemented with 20% FBS. Serial dilutions of test article (i.e., free drug) in cell culture media were prepared at 4× working concentration; 50 μL of each dilution was added to the 96-well plates. Following addition of test article, the cells were incubated with test articles for 4 days at 37° C. Resazurin was then added to each well to achieve a 50 μM final concentration, and the plates were incubated for an additional 4 h at 37° C. The plates were then read for the extent of dye reduction on a Fusion HT plate reader (Packard Instruments, Meridien, Conn., USA) with excitation and emission wavelengths of 530 and 590 nm, respectively. The IC50 value, determined in triplicate, is defined here as the concentration that results in a 50% reduction in cell growth relative to untreated controls.

[3] = test system: renal cell cancer cell line, 786-O; test: Free drug 96-hour resazurin cytotoxicity assay, 786-O; details: Homo sapiens, 786-0, Table 1, 96-hour assay, read-out: IC50 Summary for Free Drugs, 786-O
Method: as §2, §3

AML cell line HL60 = test: Free drug 96-hour resazurin cytotoxicity assay, HL60; details: Homo sapiens, HL-60, Table 1, 96-hour assay, read-out: IC50 Summary for Free Drugs, HL60
Method: as §2, §3

AML cell line HEL = test: Free drug 96-hour resazurin cytotoxicity assay, HEL; details: Table 1, 96-hour assay, read-out: IC50 Summary for Free Drugs, HEL
Method: as §2, §3

MCF-7 cells [4] = test: Free drug cytotoxicity assay, MCF-7 (Table 2); details: Homo sapiens, MCF7; Table 2; read-out: IC50 Summary for Free Drugs, MCF-7
Method: as §3
Referring to the following Table 2, the activity of compounds 28, 30 and 32 is shown on L428, 786-O, HEL, HL-60 and MCF-7 cells, as well as the activity for compound 19 on MCF-7 cells.

Structure (SMILES) | IC50 (A2780 parental cell line) [µM] | IC50 (786-O cells) [nM] | IC50 (Caki-1 cells) [nM] | IC50 (MCF-7 cells [1]) [nM] | IC50 (HL-60 cells) [nM] | IC50 (THP-1 cells) [nM] | IC50 (HEL cells) [nM] | IC50 (TF1a cells) [nM] | IC50 [2] [nM] | IC50 [3] [nM] | IC50 (AML cell line HL60) [nM] | IC50 (AML cell line HEL) [nM] | IC50 (MCF-7 cells [4]) [nM]
COc1ccc(C2=CN3C(=O)c4cc(OC)c(OCCCOc5cc6c(cc5OC)C(=O)N5C=C(c7ccc(N)cc7)C[C@H]5C=N6)cc4N=C[C@@H]3C2)cc1 [Compound 11, (S)-2-(4-aminophenyl)-7-methoxy-8-(3-((S)-7-methoxy-2-(4-methoxyphenyl)-5-oxo-5,11a-dihydro-1H-pyrrolo[2,1-c][1,4]benzodiazepine-8-yloxy)propoxy)-1H-pyrrolo[2,1-c][1,4]benzodiazepine-5(11aH)-one] | 11.7 | 0.4 | 0.2 | 1 | 0.01 | 1 | 0.03 | 1 | – | – | – | – | –
COc1ccc(C2=CN3C(=O)c4cc(OC)c(OCCCOc5cc6c(cc5OC)C(=O)N5C=C(c7cccc(N)c7)C[C@H]5C=N6)cc4N=C[C@@H]3C2)cc1 [Compound 19, (S)-2-(3-aminophenyl)-7-methoxy-8-(3-((S)-7-methoxy-2-(4-methoxyphenyl)-5-oxo-5,11a-dihydro-1H-pyrrolo[2,1-c][1,4]benzodiazepine-8-yloxy)propyloxy)-1H-pyrrolo[2,1-c][1,4]benzodiazepine-5(11aH)-one] | – | – | – | – | – | – | – | – | 1 | 0.5 | 0.6 | 0.2 | 5
